{"source": "patent US11993640B2", "about": "“Treating inflammatory lung disease” (United States Government as represented by the Department …, priority 2019, dated 2024)", "key": {"[1]": {"test_system": "HT-29 cells", "assay": "In vitro cell viability, colon cancer HT-29", "format": "cell-based, human", "details": "5 μM, 72 h; Table 3B", "protocol": "The inhibitory effects of the various synthesized GHRH antagonists were tested in cell proliferation assays in various human cancer cell lines including stomach cancer (KATOIII, N87), colon cancer (HT-29), urothelial cancer (J82, RT4), pancreatic cancer (PANC-1, CFPAC-1), prostatic cancer (PC3), breast cancer (MX-1, HCC1806), ovarian cancer (SK-OV-3, OVCAR-3) and lung cancer (HCC827, H460).\n(§1) Cell culture. Human cancer cell lines including pancreatic (PANC-1 and CFPAC-1), lung (HCC827 and H460), stomach (NCI-N87 and KATOIII), urothelial (J82, RT4), prostatic (PC3), breast (MX-1 and HCC 1806), colorectal (HT-29), and ovarian (SK-OV-3 and OVCAR-3) were obtained from the American Type Culture Collection (ATCC) and cultured at 37° C. in a humidified 95% air/5% CO2 atmosphere in the medium recommended by ATCC.\nIn vitro cell viability. Cell viability was analyzed as follows: cancer cells including pancreatic (PANC-1 and CFPAC-1), lung (HCC827 and H460), stomach (NCI-N87 and KATOIII), urothelial (J82, RT4), prostatic (PC3) and breast (MX-1 and HCC 1806), colorectal (HT-29) and ovarian (SK-OV-3 and OVCAR-3) were grown on 96 well plates to ˜60% confluence, the cells were starved for 24 h in culture medium containing 0.5% FBS. […] Cell viability was measured using CellTiter 96 aqueous one solution kit (Promega). […]"}, "[2]": {"test_system": "mouse lung fibroblasts (Mlg 2908)", "assay": "Cellular respiration, Seahorse XF Cell Mito Stress Test", "format": "cell-based", "details": "24 hours", "protocol": "Lung fibroblasts. Newborn mouse lung fibroblasts (Mlg 2908) were obtained from the American Type Culture Collection, Manassas, VA and cultured in Eagle's minimal essential medium. Cells were grown in 6-well plates before incubation with 1 or 5 μM MIA-602 or vehicle, RNA isolation, and oxygen consumption measurements.\nCellular respiration. The effects of MIA-602 on mouse lung fibroblast oxygen consumption was measured using the Agilent Seahorse XF Cell Mito Stress Test (Agilent Technologies, Santa Clara, CA) (Divakaruni A, Paradyse A, Ferrick D, Murphy A, Jastroch M (2014). Methods in Enzymology 547:309-354). Fibroblasts were incubated with vehicle, 1 or 5 μM MIA-602 for 24 hours before measurement of oxygen consumption. One day before assay 80,000 fibroblasts were seeded into Seahorse 24-well plates (n=6 wells per condition). Basal respiration was established and oligomycin, FCCP and rotenone plus antimycin A were added sequentially to measure ATP production, uncoupled respiration; and, non-mitochondrial oxygen consumption (Wangpaichitr, Wu C, Li Y, Nguyen D, Kandemir H, Shah S, Chen S, Feun L, Prince J, Kuo M, Savaraj N (2017). Oncotarget 8(30):49275-49292)."}, "[3]": {"test_system": "OVCAR-3 xenograft", "assay": "Xenograft tumor growth in nude mice, ovarian cancer OVCAR-3", "format": "in vivo", "details": "Panel M, 9 weeks, 5 μg/day s.c.", "protocol": "(§2) The peptides' activity was compared with GHRH antagonist MIA-602. All statistical analyzses were performed from comparing GHRA antagonists to non-treated tumor (control).\n(§3) Peptides and chemicals. GHRH antagonists MIA-602 and AVR-GHRH antagonists (see Table 2 above) were synthesized by solid phase methods and purified by HPLC. The peptides were dissolved in DMSO and further diluted in 10% 1, 2-propanediol. The final concentration of peptides was 50 µg/ml in 10% 1, 2-propanediol containing 0.1% of DMSO.\nas §1, with “(NCI-N87), prostate” for “(NCI-N87 and KATOIII), urothelial (J82, RT4), prostatic”, “brest” for “breast”, “HCC-1806),” for “HCC 1806),”\n(§4) Xenograft models of human cancers in nude mice. Female athymic (NCr nu/nu) nude mice, 5-to 6-weeks-old, obtained from the Envigo labs (Tampa, FL), were housed in laminar airflow cabinets under pathogen-free conditions with a 12-h light/12-h dark schedule, and were fed autoclaved standard chow and water. To generate mice with xenografted tumors, tumor xenografts were initiated by subcutaneous (s.c.) injection of […] human cancer cells into female nude mice. After about 4 weeks the resulting tumors were dissected and collected after removing necrosis tissues. The tumors were then cut into particles with size of ˜3 mm3 and transplanted s.c. by trocar needle into experimental animals. When tumors grew to the size of 50-60 mm3 (by volume), mice were randomized into groups and treated daily for 4-8 weeks by subcutaneous administration of 5 μg of GHRH antagonists MIA-602 or AVR-compounds (2-10 μg as indicated), or vehicle solutions (0.1% DMSO in 10% 1, 2-propanediol) respectively. Tumor sizes were measured weekly.\n(§5) Statistical analysis. One-way ANOVA followed by Bonferroni comparison were performed. Data are expressed as Mean±SEM. […]"}, "[4]": {"test_system": "PC3 xenograft", "assay": "Xenograft tumor growth in nude mice, prostate cancer PC3", "format": "in vivo", "details": "Panel N, 8 weeks, 5 μg/day s.c.", "protocol": "as §2, §3\nas §1, with “(NCI-N87), prostate” for “(NCI-N87 and KATOIII), urothelial (J82, RT4), prostatic”, “brest” for “breast”, “HCC-1806),” for “HCC 1806),”\nas §4, §5"}}, "note": "Non-standard residues stand in square brackets, D forms with d. Residues, ends and D or L forms follow the SMILES beside them. *: point of attachment. Phe(F5) = N[C@@H](Cc1c(F)c(F)c(F)c(F)c1F)C(=O)O; hArg = N=C(N)NCCCC[C@H](N)C(=O)O; 12Ado = NCCCCCCCCCCCC(=O)O; Nle = CCCC[C@H](N)C(=O)O; Orn = NCCC[C@H](N)C(=O)O; Abu = CC[C@H](N)C(=O)O; PhAc = O=C(Cc1ccccc1)*", "data": [{"smiles": "CCCC[C@H](NC(=O)[C@@H](NC(=O)[C@H](CC(=O)O)NC(=O)[C@H](CCC(N)=O)NC(=O)[C@H](CC(C)C)NC(=O)[C@H](CC(C)C)NC(=O)[C@H](CCCN)NC(=O)[C@H](Cc1c[nH]cn1)NC(=O)[C@H](C)NC(=O)[C@H](CO)NC(=O)[C@H](CC(C)C)NC(=O)[C@H](CCC(N)=O)NC(=O)[C@H](CC)NC(=O)[C@H](CC(C)C)NC(=O)[C@@H](NC(=O)[C@H](CCCN)NC(=O)[C@H](Cc1c[nH]cn1)NC(=O)[C@H](Cc1ccc(OC)cc1)NC(=O)[C@H](CCCCNC(=N)N)NC(=O)[C@H](C)NC(=O)[C@@H](NC(=O)[C@H](Cc1c(F)c(F)c(F)c(F)c1F)NC(=O)[C@@H](NC(=O)[C@H](C)NC(=O)[C@H](CC(=O)O)NC(=O)[C@@H](CCCNC(=N)N)NC(=O)[C@H](Cc1ccc(O)cc1)NC(=O)CCCCCCCCCCCNC(=O)Cc1ccccc1)[C@@H](C)CC)[C@@H](C)O)C(C)C)[C@@H](C)CC)C(=O)N[C@H](CCCNC(=N)N)C(=O)N[C@@H](CCCCNC(=N)N)C(N)=O", "note": "[MIA-602, PhAC-Ada, Tyr D-Arg, Asp, Ala, Ile, 5FPhe, Thr, Ala, Har, Tyr(Me), His, Orn, Val, Leu, Abu, Gin, Leu, Ser, Ala, His, Orn, Leu, Leu, Gin, Asp, Ile, Nle, D-Arg, Har NH2, reference compound] ({PhAc-12Ado}-Y[dR]DAI[Phe(F5)]TA[hArg]Y(Me)H[Orn]VL[Abu]QLSAH[Orn]LLQDI[Nle][dR][hArg]-NH2)", "values": [{"measurement": "In vitro relative inhibitory potency in comparison to MIA-602, HT-29", "setting": "[1]", "value": 1}, {"measurement": "Spare respiratory capacity", "setting": "[2]; 5 μM", "value": "increased"}, {"measurement": "Basal oxygen consumption / basal respiration", "setting": "[2]; 5 μM, compared to vehicle", "value": "increased basal oxygen consumption"}, {"measurement": "Maximal, uncoupled respiration after FCCP", "setting": "[2]; 5 μM, compared to vehicle", "value": "increased"}, {"measurement": "Non-mitochondrial respiration after antimycin A and rotenone", "setting": "[2]; 1 and 5 μM", "value": "appeared to increase non-mitochondrial respiration"}, {"measurement": "Tumor Growth %", "setting": "[3]", "value": 267.2, "unit": "%"}, {"measurement": "Tumor Growth %", "setting": "[4]", "value": 450.9, "unit": "%"}]}]}
